According to ChEMBL document CHEMBL5154881, “Discovery of First-in-Class TAK1-MKK3 Protein-Protein Interaction (PPI) Inhibitor (R)-STU104 for the Treatment of Ulcerative Colitis through Modulating TNF-α Production” (J Med Chem, 2022):
The source made the active and inactive calls. The calls are words filed in the database; no cut-off is given here.

What was measured:
Mus musculus [1] = experiment: Antiinflammatory activity against DSS-induced C57BL/6 mouse model of acute ulcerative colitis assessed as reduction in serum IL-6 levels administered intragastrically via gavage measured after 7 days by ELISA; assay type: functional, organism-based; conditions: dose 1-10 mg/kg, route ig, time 7.0 day, DDE = dose-dependent effect
[2] = Cmax in 12 hr starved C57 mouse at 30 mg/kg, po measured for 0.083 to 24 hrs post-dose by LC-MS-MS analysis; assay type: ADME, organism-based; design: dose 30 mg/kg, time 0.083-24 hrs, route po; conditions: in vivo
Mus musculus [3] = experiment: Antiinflammatory activity against IL-10-/- C57BL/6 mouse model of ulcerative colitis assessed as inhibition ratio of IL-23 mRNA expression in colon tissue at 10 mg/kg, IG via gavage and measured after 8 weeks by RT-qPCR analysis relative to control; assay type: functional; design: scale not given: the % may be the effect or the level left
[4] = Half life in 12 hr starved C57 mouse at 30 mg/kg, po measured for 0.083 to 24 hrs post-dose by LC-MS-MS analysis; assay type: ADME, organism-based; conditions: in vivo, time 0.083-24 hrs
Mus musculus [5] = experiment: Antiinflammatory activity against IL-10-/- C57BL/6 mouse model of ulcerative colitis assessed as inhibition ratio of IL-23 mRNA expression in colon tissue at 3 mg/kg, IG via gavage and measured after 8 weeks by RT-qPCR analysis relative to control; assay type: functional; design: scale not given: the % may be the effect or the level left
Mus musculus [6] = experiment: Antiinflammatory activity against DSS-induced C57BL/6 mouse model of acute ulcerative colitis assessed as inhibition ratio of IL-6 protein expression at 10 mg/kg, IG via gavage measured after 7 days by ELISA relative to control; assay type: functional; design: scale not given: the % may be the effect or the level left; conditions: time 7 day
Mus musculus [7] = experiment: Antiinflammatory activity against DSS-induced C57BL/6 mouse model of acute ulcerative colitis assessed as inhibition ratio of IL-6 mRNA expression in colon tissue at 10 mg/kg, IG via gavage measured after 7 days by RT-qPCR analysis relative to control; assay type: functional; design: scale not given: the % may be the effect or the level left; conditions: time 7 day
Mus musculus [8] = experiment: Antiinflammatory activity against DSS-induced C57BL/6 mouse model of acute ulcerative colitis assessed as inhibition ratio of IL-23 protein expression at 10 mg/kg, IG via gavage measured after 7 days by ELISA relative to control; assay type: functional; design: scale not given: the % may be the effect or the level left; conditions: time 7 day
Mus musculus [9] = experiment: Antiinflammatory activity against IL-10-/- C57BL/6 mouse model of acute ulcerative colitis assessed as decrease in serum TNF-alpha levels administered intragastrically via gavage measured after 8 weeks by ELISA; assay type: functional, organism-based; conditions: dose 3-10 mg/kg, route ig, DDE = dose-dependent effect
Mus musculus [10] = experiment: Anti-ulcerative colitis activity in IL-10-/- C57BL/6 mouse model of ulcerative colitis assessed as colon length recovery ratio at 1 mg/kg, IG via gavage for 8 weeks relative to control; assay type: functional
Mus musculus [11] = experiment: Anti-ulcerative colitis activity in DSS-induced C57BL/6 mouse ulcerative colitis model assessed as histopathological score recovery ratio at 3 mg/kg, IG via gavage measured after 7 days by H and E staining method relative to control; assay type: functional; conditions: time 7 day
Mus musculus [12] = experiment: Antiinflammatory activity against IL-10-/- C57BL/6 mouse model of ulcerative colitis assessed as inhibition ratio of TNF-alpha protein expression at 1 mg/kg, IG via gavage and measured after 8 weeks by ELISA relative to control; assay type: functional; design: scale not given: the % may be the effect or the level left
Mus musculus [13] = experiment: Anti-ulcerative colitis activity in DSS-induced C57BL/6 mouse ulcerative colitis model assessed as histopathological score recovery ratio at 10 mg/kg, IG via gavage measured after 7 days by H and E staining method relative to control; assay type: functional; conditions: time 7 day
RAW264.7 [14] = experiment: Inhibition of TAK1-MKK3 protein-protein interaction in LPS-treated mouse RAW264.7 cells assessed as reduction in TAK1 levels at 3.13 to 12.5 umol/L incubated for 30 mins by immunoprecipitation method; assay type: cell-based; conditions: dose 3.13-12.5 µmol/L
Mus musculus [15] = experiment: Anti-ulcerative colitis activity in IL-10-/- C57BL/6 mouse model of ulcerative colitis assessed as histopathological score recovery ratio at 10 mg/kg, IG via gavage for 8 weeks relative to control; assay type: functional
Mus musculus [16] = experiment: Antiinflammatory activity against IL-10-/- C57BL/6 mouse model of ulcerative colitis assessed as inhibition ratio of IL-23 mRNA expression in colon tissue at 1 mg/kg, IG via gavage and measured after 8 weeks by RT-qPCR analysis relative to control; assay type: functional; design: scale not given: the % may be the effect or the level left
Mus musculus [17] = experiment: Anti-ulcerative colitis activity against DSS-induced ulcerative colitis C57BL/6 mouse model assessed as reduction in DAI score at 1 mg/kg, IG via gavage administered for 7 days and measured everyday (reference value: 4.0); assay type: functional; conditions: time 7 day
RAW264.7 [18] = experiment: Inhibition of MKK3-p38-elF4E signaling pathway in mouse RAW264.7 cells assessed as reduction in LPS-induced elF4E phosphorylation treated for 1.5 hrs followed by LPS treatment for 1 hr by Western blot analysis; assay type: cell-based; conditions: dose 3.125-12.5 µmol/L, time 2.5 hrs, DDE = dose-dependent effect
[19] = target: T1, Dual specificity mitogen-activated protein kinase kinase 3 (Homo sapiens) (UniProt P46734); experiment: Inhibition of human MMK3 at 50 uM using SAPK2a as substrate incubated for 120 mins in presence of [gamma-33P]-ATP by scintillation counting method relative to control
T1 sequence (whole entry): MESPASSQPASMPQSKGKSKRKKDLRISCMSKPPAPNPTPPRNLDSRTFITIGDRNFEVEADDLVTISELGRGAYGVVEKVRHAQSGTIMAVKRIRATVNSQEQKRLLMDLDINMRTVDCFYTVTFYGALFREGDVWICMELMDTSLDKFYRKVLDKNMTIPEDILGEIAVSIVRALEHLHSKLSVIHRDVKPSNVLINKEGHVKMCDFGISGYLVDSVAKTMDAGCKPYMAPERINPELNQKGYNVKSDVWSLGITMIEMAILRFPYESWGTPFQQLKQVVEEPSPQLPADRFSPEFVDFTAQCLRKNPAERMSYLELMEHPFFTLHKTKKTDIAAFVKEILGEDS

Mus musculus [20] = experiment: Anti-ulcerative colitis activity in DSS-induced C57BL/6 mouse ulcerative colitis model assessed as colon length recovery ratio at 10 mg/kg, IG via gavage measured after 7 days relative to control; assay type: functional; conditions: time 7 day
Mus musculus [21] = experiment: Antiinflammatory activity against IL-10-/- C57BL/6 mouse model of ulcerative colitis assessed as inhibition ratio of TNF-alpha protein expression at 10 mg/kg, IG via gavage and measured after 8 weeks by ELISA relative to control; assay type: functional; design: scale not given: the % may be the effect or the level left
Mus musculus [22] = experiment: Anti-ulcerative colitis activity against DSS-induced ulcerative colitis C57BL/6 mouse model assessed as reduction in DAI score at 3 mg/kg, IG via gavage administered for 7 days and measured everyday (reference value: 4.0); assay type: functional; conditions: time 7 day
[23] = AUC (0 to t) in 12 hr starved C57 mouse at 30 mg/kg, po measured for 0.083 to 24 hrs post-dose by LC-MS-MS analysis; assay type: ADME, organism-based; design: time upper 24 hrs, dose 30 mg/kg, time lower 0.083 hrs, route po; conditions: in vivo
RAW264.7 [24] = experiment: Inhibition of MKK3-p38-elF4E signaling pathway in mouse RAW264.7 cells assessed as inhibition of LPS-induced p38 phosphorylation treated for 1.5 hrs followed by LPS treatment for 1 hr by Western blot analysis; assay type: cell-based; conditions: dose 3.125-12.5 µmol/L, time 2.5 hrs, DDE = dose-dependent effect
[25] = target: Voltage-gated inwardly rectifying potassium channel KCNH2 (Homo sapiens, UniProt Q12809); experiment: Inhibition of hERG; assay type: toxicity
Mus musculus [26] = experiment: Anti-ulcerative colitis activity in IL-10-/- C57BL/6 mouse model of ulcerative colitis assessed as body weight recovery ratio at 1 mg/kg, IG via gavage for 8 weeks and measured everyday relative to control; assay type: functional

Voltage-gated inwardly rectifying potassium channel KCNH2, sequence (Q12809 whole entry): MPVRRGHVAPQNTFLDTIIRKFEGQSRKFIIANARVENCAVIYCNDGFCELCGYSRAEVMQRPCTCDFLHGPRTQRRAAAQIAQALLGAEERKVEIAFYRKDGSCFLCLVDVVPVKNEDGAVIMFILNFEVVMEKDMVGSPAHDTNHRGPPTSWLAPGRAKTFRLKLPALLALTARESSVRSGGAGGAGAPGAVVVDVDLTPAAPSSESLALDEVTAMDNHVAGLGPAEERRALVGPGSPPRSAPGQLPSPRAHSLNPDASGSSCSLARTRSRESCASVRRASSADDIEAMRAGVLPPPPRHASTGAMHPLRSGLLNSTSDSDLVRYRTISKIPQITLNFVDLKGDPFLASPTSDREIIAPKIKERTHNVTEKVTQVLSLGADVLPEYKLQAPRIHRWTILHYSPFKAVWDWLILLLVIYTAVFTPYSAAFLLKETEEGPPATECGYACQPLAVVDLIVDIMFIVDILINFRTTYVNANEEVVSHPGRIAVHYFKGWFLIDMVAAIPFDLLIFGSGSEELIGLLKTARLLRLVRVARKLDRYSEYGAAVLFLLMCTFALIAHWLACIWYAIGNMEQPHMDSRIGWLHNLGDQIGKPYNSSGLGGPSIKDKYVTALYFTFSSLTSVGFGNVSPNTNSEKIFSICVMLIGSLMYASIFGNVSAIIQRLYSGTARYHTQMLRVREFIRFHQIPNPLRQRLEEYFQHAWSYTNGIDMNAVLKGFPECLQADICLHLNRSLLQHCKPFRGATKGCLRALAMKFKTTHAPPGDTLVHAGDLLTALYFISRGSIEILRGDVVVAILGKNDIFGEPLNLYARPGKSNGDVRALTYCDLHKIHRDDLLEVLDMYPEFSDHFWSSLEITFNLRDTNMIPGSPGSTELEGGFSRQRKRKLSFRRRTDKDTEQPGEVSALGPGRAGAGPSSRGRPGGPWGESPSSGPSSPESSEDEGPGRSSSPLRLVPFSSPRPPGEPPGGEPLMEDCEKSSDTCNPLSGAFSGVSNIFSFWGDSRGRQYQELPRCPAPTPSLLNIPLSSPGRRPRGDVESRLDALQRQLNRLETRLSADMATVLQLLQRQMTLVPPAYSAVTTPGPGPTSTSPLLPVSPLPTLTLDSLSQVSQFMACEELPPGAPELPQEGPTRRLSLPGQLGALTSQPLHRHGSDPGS

With COc1ccc([C@H]2CC(=O)c3cc(OC)cc(OC)c32)cc1 the Activity (Mus musculus [1]) was “Dde”, the Cmax [2] was 2290 ng/mL and the Activity (Mus musculus [3]) was 58.2%. The half-life [4] was 8.67 h, the Activity (Mus musculus [5]) was 51.7% and the Activity (Mus musculus [6]) was 56.1%. The Activity (Mus musculus [7]) was 76%, the Activity (Mus musculus [8]) was 52.3% and the Activity (Mus musculus [9]) was “Dde”. For the same molecule, the Activity (Mus musculus [10]) was 17.7%, the Activity (Mus musculus [11]) was 41.7% and the Activity (Mus musculus [12]) was 40.2%. The Activity (Mus musculus [13]) was 70%, the inhibition (RAW264.7 [14]) was “Active” and the Activity (Mus musculus [15]) was 56.7%. For the same molecule, the Activity (Mus musculus [16]) was 31%, the Activity (Mus musculus [17]) was 3.2 and the inhibition (RAW264.7 [18]) was “Dde”. For the same molecule, the inhibition [19] was < 10%, the Activity (Mus musculus [20]) was 57.6% and the Activity (Mus musculus [21]) was 61.9%. For the same molecule, the Activity (Mus musculus [22]) was 2.4, the AUC(0-t) [23] was 9900 ng·h/mL and the inhibition (RAW264.7 [24]) was “Dde”. For the same molecule, the IC50 [25] was > 30 µM and the Activity (Mus musculus [26]) was 13.6%.
